Measured values published in patent US4789630A, “Ionic compounds containing the cationic meriquinone of a benzidine” (Cetus Corporation, priority 1986, dated 1988).
Converted amounts (≈) assume the structure as drawn.

Assays:
[1] = Solubility of TMB in a series of buffers; format: physicochemical; settings: for solubility: read-out: Solubility at 30.9 C
Method: These are stoichiometric concentrations, uncorrected for ionization at pH 5.0. […] Each wash involved a total volume of 1.5 ml (pellet volume of about 0.3 ml) in an Eppendorf polypropylene centrifuge tube. […] At 30-60 min intervals, the crystal suspensions were spun 3-5 min at room temperature in a Fisher micro-centrifuge. […] After scanning, the solutions and pellets were returned to the equilibration tubes for renewed shaking. Repeat measurements were taken until precision within 20% was obtained. […] Care was taken to assure that solid meriquinone salt and solid TMB were present in each tube. Excess (saturating) TMB was added to suppress the dissociation of meriquinone charge-transfer complex into component quinone diimine and TMB (see FIG. 1). […] If the concentration was too high to measure undiluted with a 1 cm light path, the scan was performed on an undiluted sample with a 2 mm light path or an appropriately diluted sample (later discarded) with a 1 cm light path.

[2] = biological target: T1, horseradish peroxidase (HRP) (Armoracia rusticana, UniProt P00433); experiment: Kinetics of TMB oxidation by H2O2 and HRP in pH 3.9 fumarate-EDTA buffer; format: biochemical; settings: 0.31 mM TMB, 3.0 mM H2O2, 10 mM Na fumarate, 1 mM EDTA, pH 3.92, 25 C
T1 sequence (P00433 31-353): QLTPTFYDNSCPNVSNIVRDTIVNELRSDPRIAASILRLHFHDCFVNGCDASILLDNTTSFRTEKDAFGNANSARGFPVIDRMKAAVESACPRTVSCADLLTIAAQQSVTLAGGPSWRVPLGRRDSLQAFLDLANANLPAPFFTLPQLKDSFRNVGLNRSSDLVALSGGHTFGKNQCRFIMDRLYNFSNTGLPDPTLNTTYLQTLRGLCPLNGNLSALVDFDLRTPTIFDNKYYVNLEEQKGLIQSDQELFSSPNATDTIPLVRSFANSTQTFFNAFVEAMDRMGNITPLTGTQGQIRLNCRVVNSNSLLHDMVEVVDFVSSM
Method: Stock HRP solutions were prepared in 0.10M NaCl, 1.0 mM Na phosphate, pH 6.0 to be 22 ng/ml or 0.43 ng/ml in HRP, shortly before assay, HRP-catalyzed oxidation of TMB by H2 O2 was initiated by adding 20 or 2.0 μl of […] or 20 or 10 μl of 0.43 ng/ml HRP to 1.00 ml of the assay solution at 25° C. […] At the two lower HRP concentrations (0.22 and 0.11 pM in the cuvette), the reaction was followed for 30 minutes. At the end of each reaction interval, replicate 100 μl volumes of reaction mixture were spotted on a Nuclepore polycarbonate filter (3 μm pore size) and dried by gentle suction to give deposits 3-4 mm in diameter.
The initial velocity was transformed from units of absorbance per time to reciprocal time (turnover number) by dividing by the meriquinone extinction coefficient, 3.9×10^4 M^-1 cm^-1, and by the HRP concentration. […] The transition time is the time to crystal nucleation. […] The A652 of the 30 minute reaction mixture for 0.11 pM HRP was below 0.03, the approximate visual threshold, so that filtration trapping served to concentrate the signal to improve visibility. […] In addition, a white membrane would offer sharper visual contrast than the slightly yellow, translucent, polycarbonate. The transition time has a very shallow HRP concentration dependence, so that even lower HRP concentrations are unlikely to require assay times longer than 30 minutes in order to permit crystallization to occur. The transition time probably could be lowered by adding anionic latex microspheres which might serve to nucleate crystallization.

[3] = Crystal nucleation and filter trapping of the fumarate salt of the meriquinone of TMB; format: physicochemical; settings: 10 mM Na fumarate, pH 3.92, 25 C
Method: Stock HRP solutions were prepared in 0.10M NaCl, 1.0 mM Na phosphate, pH 6.0 to be 22 ng/ml or 0.43 ng/ml in HRP, shortly before assay, HRP-catalyzed oxidation of TMB by H2 O2 was initiated by adding 20 or 2.0 μl of […] or 20 or 10 μl of 0.43 ng/ml HRP to 1.00 ml of the assay solution at 25° C. […] At the end of each reaction interval, replicate 100 μl volumes of reaction mixture were spotted on a Nuclepore polycarbonate filter (3 μm pore size) and dried by gentle suction to give deposits 3-4 mm in diameter.
The initial velocity was transformed from units of absorbance per time to reciprocal time (turnover number) by dividing by the meriquinone extinction coefficient, 3.9×10^4 M^-1 cm^-1, and by the HRP concentration. […] The transition time is the time to crystal nucleation.

[4] = biological target: T2, horseradish peroxidase (Armoracia rusticana, UniProt P00433); experiment: Horseradish peroxidase activity with TMB as chromogenic substrate, pH dependence; format: biochemical; settings: from pH 5.0 to pH 4.0
T2 sequence (P00433 31-353): T1 sequence (P00433 31-353)
Method: (§1) Regarding step (e), three independent variables (apart from temperature) most strongly influence horseradish […] activity with TMB as chromogenic substrate: TMB concentration, H2 O2 concentration, and pH. […] For relatively short assays (0-10 min.), however, suicide is not severe, and initial velocity is the most important indicator of enzyme activity. Initial velocity rises monotonically with TMB concentration, and is almost proportional to TMB concentration at a H2 O2 concentration of greater than 2 mM. The pH dependence of initial velocity at constant TMB concentration indicates an optimum pH at 4. The pH dependence of TMB solubility indicates a monotonic and increasingly steep rise as the pH is lowered from 5. […] Therefore, a pH of 3.5-4.5 is the preferred pH range for step (e), more preferably pH 4.0, if the substituted benzidine is TMB and the oxidation catalyst is horseradish peroxidase. The optimum horseradish peroxidase assay conditions are at room temperature, pH 4.0, 0.4 mM (saturating) TMB, and 2-3 mM H2 O2.

[5] = pH dependence of TMB solubility (saturating TMB); format: physicochemical; settings: room temperature, pH 4.0; read-out: saturating TMB concentration
Method: as §1

[6] = Solubilities of salts of the meriquinone of TMB (equilibration of solid salt with buffer, A650)

In the case of `Cc1cc(-c2cc(C)c(N)c(C)c2)cc(C)c1N` [TMB, 3,3',5,5'-tetramethylbenzidine], the “Solubility Ratio: 30.9 C/0.0 C” value ([1]; acetate buffer, pH 5.0, 0.10M) was 2.4, the solubility ([1]; aqueous buffer, acetate buffer, pH 5.0, 0.10M) was 170 µM (≈ 40.9 µg/mL) and the solubility ([1]; aqueous buffer, citrate buffer, pH 5.0, 0.10M) was 170 µM (≈ 40.9 µg/mL). The solubility ([1]; aqueous buffer, glutarate buffer, pH 5.0, 0.10M) was 170 µM (≈ 40.9 µg/mL), the solubility ([1]; aqueous buffer, maleate buffer, pH 5.0, 0.10M) was 210 µM (≈ 50.5 µg/mL) and the solubility ([1]; aqueous buffer, malonate buffer, pH 5.0, 0.10M) was 160 µM (≈ 38.5 µg/mL). For the same compound, the solubility ([1]; aqueous buffer, phosphate buffer, pH 5.0, 0.10M) was 160 µM (≈ 38.5 µg/mL), the “Solubility Ratio: 30.9 C/0.0 C” value ([1]; citrate buffer, pH 5.0, 0.10M) was 2.3 and the “Solubility Ratio: 30.9 C/0.0 C” value ([1]; fumarate buffer, pH 5.0, 0.10M) was 3.9. For the same compound, the solubility ([1]; fumarate buffer, pH 5, aqueous buffer) was 160 µM (≈ 38.5 µg/mL), the “Solubility Ratio: 30.9 C/0.0 C” value ([1]; glutarate buffer, pH 5.0, 0.10M) was 2.0 and the “Solubility Ratio: 30.9 C/0.0 C” value ([1]; maleate buffer, pH 5.0, 0.10M) was 7.6. The “Solubility Ratio: 30.9 C/0.0 C” value ([1]; malonate buffer, pH 5.0, 0.10M) was 1.8, the “Solubility Ratio: 30.9 C/0.0 C” value ([1]; oxalate buffer, pH 5.0, 0.10M) was 12 and the solubility ([1]; oxalate buffer, pH 5, aqueous buffer) was 160 µM (≈ 38.5 µg/mL). The “Solubility Ratio: 30.9 C/0.0 C” value ([1]; phosphate buffer, pH 5.0, 0.10M) was 2.0, the “Solubility Ratio: 30.9 C/0.0 C” value ([1]; sulfate buffer, pH 5.0, 0.10M) was 1.9 and the solubility ([1]; sulfate buffer, pH 5, aqueous buffer) was 150 µM (≈ 36.1 µg/mL). The Vinitial ([2]; [HRP] 0.11 x 10^-12 M) was 4.4 × 10^-5 WA652 S^-1, the Vinitial ([2]; [HRP] 0.21 x 10^-12 M) was 8.0 × 10^-5 WA652 S^-1 and the Vinitial ([2]; [HRP] 1.1 x 10^-12 M) was 4.1 × 10^-4 WA652 S^-1. The Vinitial ([2]; [HRP] 11 x 10^-12 M) was 4.2 × 10^-3 WA652 S^-1, the “A652 at Transition” value ([3]; [HRP] 0.11 x 10^-12 M) was 0.025 and the “Transition Time (time to crystal nucleation)” value (“Transition Time” below) ([3]; [HRP] 0.11 x 10^-12 M) was 10 min. The “A652 at Transition” value ([3]; [HRP] 0.21 x 10^-12 M) was 0.04, the “Transition Time” value ([3]; [HRP] 0.21 x 10^-12 M) was 10 min and the “A652 at Transition” value ([3]; [HRP] 1.1 x 10^-12 M) was 0.08. The “Transition Time” value ([3]; [HRP] 1.1 x 10^-12 M) was 3 to 4 min, the “A652 at Transition” value ([3]; [HRP] 11 x 10^-12 M) was 0.25-0.50 and the “Transition Time” value ([3]; [HRP] 11 x 10^-12 M) was 1 to 2 min. The “increase of initial velocity at saturating TMB” value [4] was “four-fold increase” and the solubility [5] was 400 µM (≈ 96.1 µg/mL).

With Maleate the “Solubility Ratio: 25.2 C/0.0 C” value ([6]; averaged for the different stated concentrations of each salt, buffers pH 5.0 at room temperature) was 8.1 and the “Molar Solubility in 0.1 M Anion” value ([6]; extrapolated, pH 5.0, 10% ethanol, 0.10M sodium acetate, 25.2 C) was 4 × 10^-8 Molar.
